Results from US11986540B2, “Compositions including pafolacianine for the identification of malignant lesions” (ON TARGET LABORATORIES, LLC., priority 2022, dated 2024).

Assays:
[1] = tested on: FR-positive KB cell tumor xenografts; test: Whole body imaging and tissue distribution, FR-positive KB tumor xenografts; format: in vivo, mice; settings: compared with pafolacianine
Description: Whole body imaging and tissue distribution of pafolacianine and OTL0039 was performed in female nu/nu mice bearing FR-positive KB cell tumor xenografts. […] This observation was consistent with the lower binding affinity of the D-isomer for FR compared with the L-isomer. Tumor fluorescence was brighter in mice receiving pafolacianine compared with other folate-conjugated near infrared dyes such as LS288, IR800 and ZW800.
The optimal dose range for pafolacianine with respect to tumor-to-background ratio in FR-positive tumor-bearing mice was 1 to 30 nmol/mouse, with lower fluorescence intensity observed in tumors at a lower dose (0.3 nmol) and higher fluorescence intensity observed in other tissues at doses above 30 nmol. In a second experiment, pafolacianine whole body imaging and tissue distribution was examined again; however, this experiment was performed in female nu/nu mice bearing FR-negative A549 cell tumor xenografts.

[2] = tested on: cytochrome P450 (CYP) enzymes; test: Metabolism by CYP enzymes; format: in vitro ADME
[3] = Excretion after single IV infusion of radiolabeled pafolacianine sodium; format: in vivo; settings: after approximately 3-5 weeks

| Compound | fluorescence signal intensity in tumors and kidneys [1] | metabolism by cytochrome P450 (CYP) enzymes [2] | dose recovered in feces [3] [%] | dose recovered in urine [3] [%] | dose recovered in urine and feces [3] |
| --- | --- | --- | --- | --- | --- |
| CC1(C)C(=CC=C2CCCC(C=CC3=[N+](CCCCS(=O)(=O)[O-])c4ccc(S(=O)(=O)O)cc4C3(C)C)=C2Oc2ccc(C[C@@H](NC(=O)c3ccc(NCc4cnc5nc(N)[nH]c(=O)c5n4)cc3)C(=O)O)cc2)N(CCCCS(=O)(=O)O)c2ccc(S(=O)(=O)O)cc21 [OTL0039, reference compound] | weaker fluorescence signal intensity than pafolacianine | – | – | – | – |
| CC1(C)C(/C=C/C2=C(Oc3ccc(C[C@H](NC(=O)c4ccc(NCc5cnc6nc(N)[nH]c(=O)c6n5)cc4)C(=O)[O-])cc3)C(=C/C=C3/N(CCCCS(=O)(=O)[O-])c4ccc(S(=O)(=O)[O-])cc4C3(C)C)/CCC2)=[N+](CCCCS(=O)(=O)[O-])c2ccc(S(=O)(=O)[O-])cc21.O.[Na+].[Na+].[Na+].[Na+] [pafolacianine sodium, (S)-2-(4-(((2-amino-4-oxo-3,4-dihydropteridin-6-yl)methyl)amino)benzamido)-3-(4-(((E)-2-((E)-2-(3,3-dimethyl-5-sulfonato-1-(4-sulfonatobutyl)-3H-indol-1-ium-2-yl)vinyl)-6-((E)-2-(3,3-dimethyl-5-sulfonato-1-(4-sulfonatobutyl)indolin-2-ylidene)ethylidene)cyclohex-1-en-1-1)oxy)phenyl)propanoate hydrate tetrasodium] | – | not metabolized | 15.8 | 19.1 | approximately 35% |
